Data taken from patent US5225425A, “Bis-aryl amide antagonists of platelet activating factor” (American Cyanamid Company, priority 1992, dated 1993).
Several values for one entry are separate records, joined by “and”; a condition that tells them apart may be missing. Equal entries are not always repeated. Structures can show the parent of a compound that is named as a salt. Where two headings read alike, the source gives them in different places.

How the values were obtained:
PAF receptor = target: T1, PAF receptor (Oryctolagus cuniculus, UniProt G1TEI7); experiment: Inhibition of PAF induced platelet aggregation in rabbit platelet rich plasma; type: cell-based, rabbit (New Zealand White); settings: for inhibition at 10 µM: dose .00001 M
T1 construct: centrifuged at 800 rpm for 10-15 minutes at room temperature to recover the platelet rich plasma (PRP); from tissue; host or cells: platelets in platelet rich plasma from blood of male New Zealand White rabbits
T1 sequence (G1TEI7 1-342): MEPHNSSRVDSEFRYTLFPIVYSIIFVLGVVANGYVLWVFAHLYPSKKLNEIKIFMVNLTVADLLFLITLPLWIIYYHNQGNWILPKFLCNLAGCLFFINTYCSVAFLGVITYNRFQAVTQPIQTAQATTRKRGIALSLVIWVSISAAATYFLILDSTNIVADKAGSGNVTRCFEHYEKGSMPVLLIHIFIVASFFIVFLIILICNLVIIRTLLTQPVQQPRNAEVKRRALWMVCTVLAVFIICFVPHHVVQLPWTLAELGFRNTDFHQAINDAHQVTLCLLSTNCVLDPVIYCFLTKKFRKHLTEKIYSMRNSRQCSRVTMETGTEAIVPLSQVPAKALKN
Procedure: Test compounds are evaluated as PAF receptor antagonists in vitro by measuring inhibition of PAF (platelet activating factor) induced platelet aggregation. Platelet aggregation is measured by a modification of the method described in […], et. al., J. Med. Chem., 27 1174, 1984. […] All syringes and pipets are plastic. The blood is gently mixed and immediately centrifuged at 800 rpm for 10-15 minutes at room temperature to recover the platelet rich plasma (PRP). Platelet poor plasma (PPP) is prepared by centrifuging PRP at 2800 rpm for 10 minutes at room temperature. Dilutions (1:3000) of PRP in Isotone diluent are made and platelet counts are determined on a Coulter Thrombocounter which is standardized with platelet reference standards (Interscience Platelet Control, Portland, Oreg.). PRP platelet counts are adjusted to approximately 400,000-500,000 platelets/μl by the addition of PPP. L-PAF (Platelet Activating Factor) is obtained from Calbiochem. […] All solutions are made up in plastic tubes, stored on ice and protected from heat and light. Solutions are prepared fresh or frozen at -20° C. and used within 48 hours. Incubation mixtures consisted of 400 μl PRP, 50 μl of saline diluent or test compound and 50 μl of PAF agonist. More specifically, 400μl of PRP is stabilized in a cuvette for 1-2 minutes at 37° C. in the aggregometer to achieve a stable baseline, then 50 μl of saline or test compound is added and incubated for 5 minutes before addition of the challenge concentration of pAF. A submaximal concentration is determined from the dose response curve for PAF for that experiment. In general, the challenge concentration is 5E-8 or 1E-7M. Aggregation is monitored for 5 minutes. Samples containing test compound or diluent are run simultaneously for comparison. Test compounds are initially evaluated at a screening concentration of 1E-5M. […] The recording equipment consists of a dual channel Chronolog aggregometer connected to a dual channel 10MV full scale deflection Omniscribe chart recorder (Houston Instruments). The chart recorder is calibrated daily with the use of a suspension of Bio-Rad latex beads (S-X 12 400 mesh) which has a density slightly greater than rabbit PRP. […] These limits defined a full scale deflection. The aggregation traces are analyzed by a digitizing method (C. Kohler and B. Zoltan, J. Pharm. Methods, 12, 113, 1984) with x, y coordinate data stored in a computer file. A suitable program computes parameters of interest such as the magnitude of aggregation.

PAF = PAF induced lethality in mice; type: in vivo; settings: PAF 150 μg/kg IV
Procedure: PAF given I.V. to mice causes an immediate hypotensive shock leading to death in 1 hour or less. […] Animals alive after 2 hours are counted and the activity of test compounds expressed as % survival corrected for any control (saline treated) animals which survived the PAF challenge.

LPS endotoxin [1] = experiment: Low dose, chronic mouse endotoxemia (LPS endotoxin); type: in vivo, Male Balb/c mice; settings: day 6, LPS 20 mg/kg i.p.
Description: (§1) Endotoxin administration produces a shock-like state characterized by vascular permeability changes, hypotension, neutropenia, thrombocytopenia,multiple organ damage and death. The major mediators released after endotoxin injection are TNF (tumor necrosis factor), PAF (platelet activating factor) and […] (interleukin I). PAF administration mimics the signs and symptoms of endotoxin induced shock and death and endotoxin also induces the release of PAF. Therefore, the effects of endotoxin should be blocked with a PAF antagonist.
(§2) Male Balb/c mice (approximately 20 g) are obtained from Charles River Laboratories and used after a one-two week acclimation period. Animals are given (ip) test compound dissolved in saline or water (sonicated and heated) at different time intervals prior to and after the ip injection of endotoxin (usually 2 hours before LPS endotoxin, and 3-4 hours after). Sigma E. Coli endotoxin, 0111:B4, phenol extraction, catalog #L2630 is used for these studies.
For the chronic endotoxin shock model, a lower dose of endotoxin is administered (generally 15 to 20 mg/kg i.p). This dose gives an LD80 in two to four days following LPS administration. Test compounds are given 2 hours before LPS and 3-4 hours after on the first day, followed by 3 or 4 consecutive days of BID dosing. The number of survivors in each group is recorded each day for a period of 5 to 7 days.
All mice challenged with LPS endotoxin = 20 mg/kg i.p.
CL test cpd given 2 hours before and 3-4 hours after LPS challenge on day
0, followed by BID dosing for 3-4 days.

LPS endotoxin [2] = experiment: High dose acute mouse endotoxemia (LPS endotoxin induced mortality); type: in vivo, Male Balb/c mice; settings: for % Survival / survivors/total: i.p., LPS 50 mg/kg ip
Description: as §1, §2
This LD value is approximately 50 mg/kg i.p. The number of survivors in each group (control or treated with test compound) is recorded after 24, 48 or 72 hours and the treated groups (receiving test compound and endotoxin) are compared with the untreated, control group (receiving endotoxin only) or saline control (receiving saline and endotoxin).
LPS Endotoxin challenge = 50 mg/kg ip
Test cpd given 2 hrs. before and 3-4 hrs. after LPS challenge on day 0,
followed by BID dosing for 3-4 days.

[3] = PAF challenge 5.0000E-08 M, read-out: % INH of PAF induced platelet aggregation
[4] = PAF challenge 5E-9 M, read-out: % INH of PAF induced platelet aggregation

With `CCCCCCCCCCCCCCOc1ccc(CN(C(C)=O)c2cccc(C[n+]3csc(C)c3)c2)cc1.[Br-]` [3-[[3-[Acetyl[[4-(tetradecyloxy)phenyl]methyl]amino]phenyl]methyl]-5-methylthiazolium bromide] the inhibition at 10 µM (PAF receptor; [3]) was 98%, the “% Survival” value (PAF; 1 mg/kg I.V.) was 83% and the “% Survival” value (PAF; 5 mg/kg P.O.) was 52%. For the same compound, the “% Survival” value (PAF; 10 mg/kg P.O.) was 75%, the “% Survival” value (PAF; 20 mg/kg P.O.) was 75% and the “% Survival” value (PAF; .25 mg/kg I.V.) was 100%. For the same compound, the “% Survival” value (PAF; .5 mg/kg I.V.) was 83%.

Compound `CCCCCCCCCCCCCCOc1ccc(CC(=O)Nc2cccc(C[n+]3ccsc3)c2)cc1.[Br-]` [3-[[3-[[[4-(tetradecyloxy)phenyl]acetyl]amino]phenyl]methyl]thiazolium bromide] has an IC50 (PAF receptor; PAF challenge 5E-9 M) of 120 nM, an inhibition at 2.5 µM (PAF receptor; dose .0000025 M, PAF challenge 5.0000E-08 M, read-out: % INH of PAF induced platelet aggregation) of 97% and an inhibition at 10 µM (PAF receptor; [3]) of 100%. The inhibition at 10 µM (PAF receptor; [4]) was 98%, the “% Survival” value (PAF; 40 mg/kg P.O.) was 40% and the “% Survival” value (LPS endotoxin [1]; dose 10 mg/kg i.p.) was 63%. The “% Survival” value (LPS endotoxin [1]; dose 20 mg/kg i.p.) was 40%.

In the case of `CCCCCCCCCCCCCCOc1ccc(CN(C(=O)NC)c2cccc(C[n+]3csc(C)c3)c2)cc1.[Br-]` [5-methyl-3-[[3-[[(methylamino)carbonyl]-[[4-(tetradecyloxy)phenyl]methyl]amino]phenyl]methyl]-thiazolium bromide], the IC50 (PAF receptor; PAF challenge 5.0000E-08 M) is reported as 460 nM, the IC50 (PAF receptor; PAF challenge .0000001 M) is reported as 1090 nM and the inhibition at 10 µM (PAF receptor; [3]) is reported as 90%. The inhibition at 10 µM (PAF receptor; PAF challenge .0000001 M, read-out: % INH of PAF induced platelet aggregation) was 95%, the “% Survival” value (LPS endotoxin [1]; dose 10 mg/kg i.p.) was 46% and the “% Survival” value (LPS endotoxin [1]; dose 20 mg/kg i.p.) was 20%.

`CCCCCCCCCCCCCCOc1cccc(CC(=O)Nc2cccc(C[n+]3csc(C)c3)c2)c1.[Br-]` [5-methyl-3-[[3-[[[3-(tetradecyloxy)phenyl]acetyl]amino]phenyl]methyl]thiazolium bromide] was tested, and the IC50 (PAF receptor; PAF challenge 5.0000E-08 M) was 490 nM and 1270 nM, the IC50 (PAF receptor; PAF challenge 5E-9 M) was 1060 nM and the inhibition at 10 µM (PAF receptor; [4]) was 100%. The “% Survival” value (PAF; 5 mg/kg P.O.) was 40%, the “% Survival” value (PAF; 20 mg/kg P.O.) was 59% and the “% Survival” value (LPS endotoxin [2]; day 0) was 100%. For the same compound, the survivors/total (LPS endotoxin [2]; day 0) was 30/30, the “% Survival” value (LPS endotoxin [2]; day 1) was 40% and the survivors/total (LPS endotoxin [2]; day 1) was 12/30. The “% Survival” value (LPS endotoxin [2]; day 2) was 13%, the survivors/total (LPS endotoxin [2]; day 2) was 4/30 and the “% Survival” value (LPS endotoxin [2]; day 3) was 10%. The survivors/total (LPS endotoxin [2]; day 3) was 3/30, the “% Survival” value (LPS endotoxin [2]; day 4) was 10% and the survivors/total (LPS endotoxin [2]; day 4) was 3/30. The “activity when administered ip prior to a lethal ip injection of endotoxin” value (LPS endotoxin [2]; ip, in words) was “some activity” and the “% Survival” value (LPS endotoxin [1]; dose 10 mg/kg i.p.) was 43%.

For `CCCCCCCCCCCCCCOc1ccc(CC(=O)Nc2ccc(C[n+]3csc(C)c3)cc2)cc1.[Br-]` [5-methyl-3-[[4-[[[4-(tetradecyloxy)phenyl]acetyl]amino]phenyl]methyl]-thiazolium bromide], the IC50 (PAF receptor; PAF challenge 5.0000E-08 M) was 180 nM and 320 nM and 1300 nM, the inhibition at 10 µM (PAF receptor; [3]) was 92% and the “% Survival” value (PAF; 5 mg/kg P.O.) was 32%. The “% Survival” value (PAF; 20 mg/kg P.O.) was 32%.

For `CCCCCCCCCCCCCCOc1ccc(CC(=O)Nc2cccc(-n3ccnc3C)c2)cc1` [N-[3-(2-methyl-1H-imidazol-1-yl)phenyl]-4-(tetradecyloxy)-benzeneacetamide monohydrochloride], the IC50 (PAF receptor; PAF challenge 5.0000E-08 M) was 18600 nM and the inhibition at 10 µM (PAF receptor; [3]) was 34%.
